The record followed here is ChEMBL document CHEMBL1145234, “A new synthetic analogue of thymidine, 7-(3-bromo-phenoxy)-thymidine, inhibits the proliferation of tumor cells” (Bioorg Med Chem Lett, 2005).

The subject of one assay is HeLa. Nature of the assay: Inhibitory concentration against HeLa cell proliferation after 72 hours of incubation; NA means not active.
Conditions: not given; call rule not given here
The class given is functional, cell-based, Homo sapiens.
Broadly, the IC50 is the concentration needed to halve the response being measured. Low readings indicate greater potency, high ones weaker potency. On to `O=c1ccn([C@H]2C[C@H](O)[C@@H](CO)O2)c(=O)[nH]1` [DEOXYURIDINE], for which the IC50 result is recorded as “Not Active”.

The test system of the next assay is HeLa. The assay is described as follows: Inhibitory concentration against HeLa cell proliferation after 72 hours of incubation. The conditions noted are these: Homo sapiens. The class given is functional, cell-based.
In turn, `O=c1[nH]c(=O)n([C@H]2C[C@H](O)[C@@H](CO)O2)cc1COc1ccc(Br)cc1` registered an IC50 of 25 µM.

For the compound `CCOc1ccc(OCc2cn([C@H]3C[C@H](O)[C@@H](CO)O3)c(=O)[nH]c2=O)cc1`, the IC50 turned out to be 250 µM. This IC50 is about 10-fold higher than that of the compound before.

Regarding `O=c1[nH]c(=O)n([C@H]2C[C@H](O)[C@@H](CO)O2)cc1COc1ccccc1`, the half-inhibitory concentration (IC50) stood at 200 µM.

Take `O=c1[nH]c(=O)n([C@H]2C[C@H](O)[C@@H](CO)O2)cc1COc1ccc([N+](=O)[O-])cc1`: inhibition was half-maximal at 250 µM (IC50). Regarding `O=c1[nH]c(=O)n([C@H]2C[C@H](O)[C@@H](CO)O2)cc1COc1cccc2ccccc12`, the IC50 came to 50 µM. On the same count and under the same terms, to `O=c1[nH]c(=O)n([C@H]2C[C@H](O)[C@@H](CO)O2)cc1CSc1cccc2ccccc12` belongs 500 µM; to `COc1ccc(OCc2cn([C@H]3C[C@H](O)[C@@H](CO)O3)c(=O)[nH]c2=O)cc1`, 200 µM.

The compound `Cc1ccc(OCc2cn([C@H]3C[C@H](O)[C@@H](CO)O3)c(=O)[nH]c2=O)cc1` returned an IC50 of 250 µM. Regarding `O=c1[nH]c(=O)n([C@H]2C[C@H](O)[C@@H](CO)O2)cc1COc1ccc2ccccc2c1`, the IC50 is 50 µM.

`O=c1[nH]c(=O)n([C@H]2C[C@H](O)[C@@H](CO)O2)cc1COc1cccc(Br)c1`: the IC50 came to 15 µM. This IC50 is about 3.3-fold lower than that of the compound before.

`Cc1cn([C@H]2C[C@H](O)[C@@H](CO)O2)c(=O)[nH]c1=O` [DOXRIBTIMINE] gave an IC50 of 4000 µM.
